{
  "source": "patent US4666929A",
  "about": "“Anthranilic acid ester derivatives and antiinflammatory and analgetic external preparations containing the same” (Shiseido Company Ltd., priority 1985, dated 1987)",
  "key": {"[1]": {"tested_on": "pain induced by the brewer's yeast", "test": "Evaluation Test Example 7 (Analgetic Activity), Randall-Selitto method", "assay_type": "in vivo, rat", "conditions": "topical, 2.5 mg/paw, 5 hours after injection of brewer's yeast", "experimental": "This method is admitted as a standard method for evaluating non-anesthetic analgesic agent.\nThe test sample compounds were applied to the both foot pad of hind paws of the rats each in an application amount of 50 μl as a 2.5% ethanol solution. After one hour, 50 μl each of the ethanol solution of the sample compound was again applied and 0.1 ml of a 5% brewer's yeast/physiological saline was immediately subcutaneously applied to one foot pad of the rat as a pain inducing substance. After a predetermined time period, the weight of the pain generation was measured using a horizontal balance type presser and the decrease rate (P1) of the pain threshold value was determined. The above-mentioned evaluation test procedure was also carried out in the control rat group, except that the solvent containing no sample compounds was applied. Thus, the decrease rate (P0) of the pain threshold value in the control group was determined. The inhibition (%) of the pain induced by the brewer's yeast was calculated as follows: [formula] When this value is large, the analgetic activity is high."}, "in vivo [2]": {"test": "in vivo", "conditions": "mouse, in vivo; oral, ICR female mice", "experimental": "(§1) The evaluation test was carried out using ICR female mice (i.e., body weight=18 to 22 g, 10 mice in each group).\n(§2) The sample compounds listed in Table 3 were dispersed in 2.0% carboxymethyl cellulose/physiological saline solution and orally administered in a given amount by a peroral syringe. After the administration, the toxic conditions were observed and the oral acute toxicity (LD50) was calculated from the death number according to a Van Der Werden method."}, "ICR female mice": {"tested_on": "ICR female mice", "test": "in vivo", "experimental": "as §1, §2"}, "UV induced erythema [3]": {"tested_on": "UV induced erythema", "test": "Evaluation Test Example 6 (Antiinflammatory Activity), ultraviolet erythema method", "assay_type": "in vivo, guinea pig", "conditions": "topical; for Prevention % (UV induced erythema): 25 μg/cm^2, 3 hours after UV irradiation", "experimental": "(§3) Healthy Hartley strain albino guinea pigs (i.e., body weight=450-500 g, 10 pigs in each group) were used as the test animals. The back skin of the guinea pigs was clipped and shaved, and sections having a size of 1.41 cm×1.41 cm were prepared in the back skin, by using a rubber plate, symmetrically spaced from the back center line. The divided sections were irradiated with ultraviolet ray having a medium wavelength (i.e., 280-320 nm, λmax =305 nm) to induce erythema. After the UV irradiation, 10 μl of a solution of the test sample compound in olive oil was applied to the sections on one side. The formation of the erythema was observed over a period of time. The average erythema (E1) in the section to which the sample compound was applied and the average erythema (E0) in the section to which no sample compounds were applied were measured. […] [formula] When the inhibitory value (%) is large, the antiinflammatory activity of the sample compound is high.\nThe anti-inflammatory activity test of 2-furanmethyl-N-(2,3-xylyl)anthranilate was carried out in the same manner as in Evaluation Test Example 5."}, "[4]": {"tested_on": "carrageenan foot pad edema", "test": "Evaluation Test Example 4 (Antiinflammatory Activity), rat/carrageenan foot pad edema method", "assay_type": "in vivo", "conditions": "oral, 100 mg/kg; for Prevention % (carrageenan edema): 5 hours after λ-carrageenan injection", "experimental": "(§4) The antiinflammatory effects of the present compounds were determined according to the so-called rat/carrageenan foot pad edema method. This method is admitted as a standard test method for determining antiinflammatory effects, because this method has a high correlationship with human antiinflammatory effects.\n(§5) The evaluation test was carried out using Wister male rats (i.e., body weight =110-130 g, 8 rats in each group) according to a Winter et al method set forth in \"Proceedings of the Society for Experimental Biology & Medicine, 111, p 554, 1962).\n(§6) The sample compounds listed in Table 4 were dispersed in a 0.5% aqueous carboxymethyl cellulose solution and orally administered in a dosage of 100 mg/kg. One hour after the administration, 0.1 ml of a 1% λ-carrageenan/physiological saline was subcutaneously applied to the foot pad of one paw of the rat as an inflammatory inducing substance. Thus, the edema was caused. The volumes of the foot pad were measured in the predetermined constant time period before and after the administration and the increase (V1) in the volume was calculated. On the other hand, the increase (V0) in the volume of the foot pad of the control rats, to which the aqueous 0.5% carboxymethyl cellulose solution containing no test sample compounds, was determined by injecting the λ-carageenan. Thus, the inhibition (%) of the carageenan edema was calculated as follows: [formula] The antiinflammatory activity is high when this value is large.\nThe evaluation test of 2-furanmethyl-N-(2,3-xylyl) anthranilate was carried out in the same manner as in Evaluation Test Example 3."}, "UV induced erythema [5]": {"tested_on": "UV induced erythema", "test": "Evaluation Test Example 5 (Antiinflammatory Activity), ultraviolet erythema method", "assay_type": "in vivo, guinea pig", "conditions": "topical, 25 μg/cm^2, 3 hours after UV irradiation", "experimental": "The evaluation test of N-(2,3-xylyl) anthranilic acid derivatives was carried out according to the so-called ultraviolet erythema method.\nas §3"}, "[6]": {"conditions": "oral administration, background art; cited from earlier work"}, "[7]": {"conditions": "background art; cited from earlier work"}, "[8]": {"tested_on": "carrageenan foot pad edema", "test": "Evaluation Test Example 3 (Antiinflammatory Activity), rat/carrageenan foot pad edema method", "assay_type": "in vivo", "conditions": "oral, 100 mg/kg, 5 hours after λ-carrageenan injection", "experimental": "as §4, §5, §6"}, "in vivo [9]": {"test": "in vivo", "conditions": "mouse, oral, ddY male mice, 7 days of observation", "experimental": "The evaluation test was carried out using ddY male mice (i.e., body weight =18 to 22 g, 10 mice in each group).\nas §2, with “compound” for “compounds”, “2 was” for “3 were”, “0.5%” for “2.0%”, “number during 7 days of observation” for “number”, “Litchfield Wilcoxon” for “Van Der Werden”"}},
  "data": [
    {"smiles": "Cc1cccc(Nc2ccccc2C(=O)OCCc2ccccn2)c1C", "note": "[2-(2-pyridyl)ethyl-N-(2,3-xylyl)anthranilate]", "values": [
      {"measurement": "Inhibition % (pain induced by brewer's yeast)", "setting": "[1]", "value": 45.5, "unit": "%"}
    ]},
    {"smiles": "CC(C)Cc1ccc(C(C)C(=O)OCc2ccccn2)cc1", "note": "(centres unmarked) [2-(p-isobutylphenyl)propionic acid-2-pyridylmethyl ester, reference compound]", "values": [
      {"measurement": "Inhibition % (pain induced by brewer's yeast)", "setting": "[1]", "value": 39.2, "unit": "%"}
    ]},
    {"smiles": "Cc1cccc(Nc2ccccc2C(=O)OCc2ccco2)c1C", "note": "[2-furanmethyl-N-(2,3-xylyl)anthranilate]", "values": [
      {"measurement": "LD50", "setting": "in vivo [2]", "value": 5480, "unit": "mg/kg"},
      {"measurement": "LD50 relative to known N-(2,3-xylyl)anthranilic acid", "setting": "ICR female mice; oral", "value": "about 4 times higher"},
      {"measurement": "toxicity", "setting": "ICR female mice; oral acute toxicity, in words", "value": "very low"},
      {"measurement": "Inhibition % (pain induced by brewer's yeast)", "setting": "[1]", "value": 56.5, "unit": "%"},
      {"measurement": "Prevention % (UV induced erythema)", "setting": "UV induced erythema [3]", "value": 54.3, "unit": "%"},
      {"measurement": "erythema [inhibition] versus N-(2,3-xylyl)anthranilic acid", "setting": "UV induced erythema [3]; 25 μg/cm^2, in words", "value": "stronger than that of the known N-(2,3-xylyl)anthranilic acid"},
      {"measurement": "Prevention % (carrageenan edema)", "setting": "[4]", "value": 50.7, "unit": "%"},
      {"measurement": "edema inhibitory activity versus N-(2,3-xylyl)anthranilic acid", "setting": "[4]; in words", "value": "as strong as for the known N-(2,3-xylyl)anthranilic acid"}
    ]},
    {"smiles": "Cc1cccc(Nc2ccccc2C(=O)OCc2ccccn2)c1C", "note": "[2-pyridylmethyl-N-(2,3-xylyl)anthranilate]", "values": [
      {"measurement": "Inhibition % (pain induced by brewer's yeast)", "setting": "[1]", "value": 53.6, "unit": "%"}
    ]},
    {"smiles": "Cc1cccc(Nc2ccccc2C(=O)OCc2cccnc2)c1C", "note": "[3-pyridylmethyl-N-(2,3-xylyl)anthranilate]", "values": [
      {"measurement": "Inhibition % (pain induced by brewer's yeast)", "setting": "[1]", "value": 48.3, "unit": "%"}
    ]},
    {"smiles": "Cc1cccc(Nc2ccccc2C(=O)O)c1C", "note": "[N-(2,3-xylyl)anthranilic acid, reference compound]", "values": [
      {"measurement": "Inhibition % (UV induced erythema)", "setting": "UV induced erythema [5]", "value": 32.8, "unit": "%"},
      {"measurement": "Inhibition % (pain induced by brewer's yeast)", "setting": "[1]", "value": 32.8, "unit": "%"},
      {"measurement": "side effects", "setting": "[6]", "value": "various side effects including enterogasteric disorders, renal disorders, and vertigo occur"},
      {"measurement": "solubility in water, an alcohol, or an oil", "setting": "[7]", "value": "very difficult to dissolve"},
      {"measurement": "Inhibition % (carrageenan edema)", "setting": "[8]", "value": 56.8, "unit": "%"},
      {"measurement": "Prevention % (UV induced erythema)", "setting": "UV induced erythema [3]", "value": 35.4, "unit": "%"},
      {"measurement": "Prevention % (carrageenan edema)", "setting": "[4]", "value": 46.8, "unit": "%"}
    ]},
    {"smiles": "Cc1cccc(Nc2ccccc2C(=O)OCc2ccccn2)c1C", "note": "[drawing 4]", "values": [
      {"measurement": "LD50 at 168 h", "setting": "in vivo [9]", "value": 4420, "unit": "mg/kg"}
    ]},
    {"smiles": "Cc1cccc(Nc2ccccc2C(=O)OCc2cccnc2)c1C", "note": "[drawing 5]", "values": [
      {"measurement": "LD50 at 168 h", "setting": "in vivo [9]", "value": 3820, "unit": "mg/kg"}
    ]},
    {"smiles": "Cc1cccc(Nc2ccccc2C(=O)OCc2ccncc2)c1C", "note": "[drawing 6]", "values": [
      {"measurement": "LD50 at 168 h", "setting": "in vivo [9]", "value": 4850, "unit": "mg/kg"}
    ]},
    {"smiles": "Cc1cccc(Nc2ccccc2C(=O)OCCc2ccccn2)c1C", "note": "[drawing 7]", "values": [
      {"measurement": "LD50 at 168 h", "setting": "in vivo [9]", "value": 4100, "unit": "mg/kg"}
    ]},
    {"smiles": "Cc1cccc(Nc2ccccc2C(=O)OCCCc2cccnc2)c1C", "note": "[drawing 8]", "values": [
      {"measurement": "LD50 at 168 h", "setting": "in vivo [9]", "value": 3750, "unit": "mg/kg"}
    ]},
    {"smiles": "Cc1cccc(Nc2ccccc2C(=O)OCc2ccccn2)c1C", "note": "[drawing 9]", "values": [
      {"measurement": "Inhibition % (carrageenan edema)", "setting": "[8]", "value": 61.3, "unit": "%"}
    ]},
    {"smiles": "Cc1cccc(Nc2ccccc2C(=O)OCc2cccnc2)c1C", "note": "[drawing 10]", "values": [
      {"measurement": "Inhibition % (carrageenan edema)", "setting": "[8]", "value": 55.2, "unit": "%"}
    ]},
    {"smiles": "Cc1cccc(Nc2ccccc2C(=O)OCc2ccncc2)c1C", "note": "[drawing 11]", "values": [
      {"measurement": "Inhibition % (carrageenan edema)", "setting": "[8]", "value": 53.5, "unit": "%"}
    ]},
    {"smiles": "Cc1cccc(Nc2ccccc2C(=O)OCc2ccccn2)c1C", "note": "[drawing 12]", "values": [
      {"measurement": "Inhibition % (UV induced erythema)", "setting": "UV induced erythema [5]", "value": 47.6, "unit": "%"}
    ]},
    {"smiles": "Cc1cccc(Nc2ccccc2C(=O)OCc2cccnc2)c1C", "note": "[drawing 13]", "values": [
      {"measurement": "Inhibition % (UV induced erythema)", "setting": "UV induced erythema [5]", "value": 51.3, "unit": "%"}
    ]},
    {"smiles": "Cc1cccc(Nc2ccccc2C(=O)OCc2ccncc2)c1C", "note": "[drawing 14]", "values": [
      {"measurement": "Inhibition % (UV induced erythema)", "setting": "UV induced erythema [5]", "value": 43.1, "unit": "%"}
    ]},
    {"smiles": "Cc1cccc(Nc2ccccc2C(=O)OCCc2ccccn2)c1C", "note": "[drawing 15]", "values": [
      {"measurement": "Inhibition % (UV induced erythema)", "setting": "UV induced erythema [5]", "value": 35.4, "unit": "%"}
    ]},
    {"smiles": "Cc1cccc(Nc2ccccc2C(=O)OCCCc2cccnc2)c1C", "note": "[drawing 16]", "values": [
      {"measurement": "Inhibition % (UV induced erythema)", "setting": "UV induced erythema [5]", "value": 33.2, "unit": "%"}
    ]}
  ]
}
